This note sets out measurements from patent US20170291890A1 (Epizyme, Inc., priority 2014, published 2017).

In general, IC50 refers to the midpoint of a concentration-inhibition curve.

The experiment addresses T1, KDM5A (Homo sapiens, UniProt P29375).
T1 construct: C-terminal FLAG-tagged KDM5A^1-1090 was purchased from BPS Biosciences; FLAG (C); purchased BPS Biosciences
T1 sequence (P29375 1-1090): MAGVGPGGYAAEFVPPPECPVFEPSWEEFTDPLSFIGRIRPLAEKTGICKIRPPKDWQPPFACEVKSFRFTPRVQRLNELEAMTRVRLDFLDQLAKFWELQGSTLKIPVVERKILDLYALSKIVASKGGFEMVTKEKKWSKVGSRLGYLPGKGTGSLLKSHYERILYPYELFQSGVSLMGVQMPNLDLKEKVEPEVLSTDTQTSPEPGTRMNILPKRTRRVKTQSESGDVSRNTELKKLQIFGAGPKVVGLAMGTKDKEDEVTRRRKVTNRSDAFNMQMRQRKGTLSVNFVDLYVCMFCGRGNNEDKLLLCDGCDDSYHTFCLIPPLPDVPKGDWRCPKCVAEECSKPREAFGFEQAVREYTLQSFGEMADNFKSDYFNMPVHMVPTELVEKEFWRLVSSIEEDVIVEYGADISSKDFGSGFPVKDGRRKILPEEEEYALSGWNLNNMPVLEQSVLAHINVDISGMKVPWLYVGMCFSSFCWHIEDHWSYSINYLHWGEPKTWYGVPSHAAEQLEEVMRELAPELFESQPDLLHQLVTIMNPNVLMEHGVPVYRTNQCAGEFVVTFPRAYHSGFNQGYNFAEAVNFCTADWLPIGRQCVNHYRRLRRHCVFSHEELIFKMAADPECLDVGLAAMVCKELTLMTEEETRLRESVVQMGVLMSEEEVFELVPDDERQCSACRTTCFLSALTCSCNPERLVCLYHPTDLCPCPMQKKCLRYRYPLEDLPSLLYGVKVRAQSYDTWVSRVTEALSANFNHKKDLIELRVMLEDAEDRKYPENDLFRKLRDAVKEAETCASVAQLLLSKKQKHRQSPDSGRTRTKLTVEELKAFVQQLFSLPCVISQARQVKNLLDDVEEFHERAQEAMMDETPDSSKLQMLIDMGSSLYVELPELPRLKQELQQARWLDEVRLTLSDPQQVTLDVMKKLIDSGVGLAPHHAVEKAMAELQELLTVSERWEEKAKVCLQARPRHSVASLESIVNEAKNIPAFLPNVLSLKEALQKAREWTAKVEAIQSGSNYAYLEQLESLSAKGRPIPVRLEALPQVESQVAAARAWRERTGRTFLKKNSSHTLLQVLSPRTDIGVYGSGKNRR
Briefly: KDM5A Assay (SAMDI mass spectrometry demethylase assay). The class given is biochemical. The following applies: C-terminal FLAG-tagged KDM5A 1-1090; class symbols; read-out: 5A IC50. Summed up:
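FLAG-tagged KDM5A 1-1090 (20 nM) preincubated 30 min with compound in pH 8.0 HEPES buffer with ascorbate, Fe(II), TCEP, then reacted 150 min at 25 °C with H3K4me3 peptide (250 nM) and 2-oxoglutarate (15 μM). Formic acid-quenched; SAMDI-MS substrate/product AUC conversion; IC50 from dose-response.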

With `Cc1cc(Nc2cnccc2C(=O)O)n(C2CCOCC2)n1` [Compound 78, 3-((3-methyl-1-(tetrahydro-2H-pyran-4-yl)-1H-pyrazol-5-yl)amino) isonicotinic acid], the IC50 lay within 1000 to 10000 nM.

For `Cc1c(Nc2cnccc2C(=O)O)cnn1[C@H]1CC[C@@H](N)CC1` [Compound 79, 3-((1-((cis)-4-aminocyclohexyl)-5-methyl-1H-pyrazol-4-yl)amino)isonicotinic acid], the IC50 was 1000 to 10000 nM. The result for `Cc1c(Nc2cnccc2C(=O)O)cnn1C1CCN(C2CCC2)CC1` [Compound 96] reads 1000 to 10000 nM; that for `Cc1nn(C2CCN(C(=O)c3ccccc3)CC2)cc1Nc1cnccc1C(=O)O` [Compound 97, 3-(1-(1-benzoylpiperidin-4-yl)-3-methyl-1H-pyrazol-4-ylamino) isonicotinic acid], 100 to 1000 nM. On to `Cc1c(Nc2cnccc2C(=O)O)cnn1C1CCN(C(=O)c2ccccc2)CC1` [Compound 98, 3-(1-(1-benzoylpiperidin-4-yl)-5-methyl-1H-pyrazol-4-ylamino) isonicotinic acid], for which the IC50 is 1000 to 10000 nM. Regarding `Cc1nn(C2CCN(CC(F)(F)F)CC2)cc1Nc1cnccc1C(=O)O` [Compound 99, 3-(3-methyl-1-(1-(2,2,2-trifluoroethyl)piperidin-4-yl)-1H-pyrazol-4-ylamino)isonicotinic acid], the 50% inhibitory concentration (IC50) was in the range of 100 to 1000 nM. In the case of `Cc1c(Nc2cnccc2C(=O)O)cnn1C1CCN(CC(F)(F)F)CC1` [Compound 100, 3-(5-methyl-1-(1-(2,2,2-tri-fluoro-ethyl)piperidin-4-yl)-1H-pyrazol-4-ylamino)isonicotinic acid], the IC50 lay within 1000 to 10000 nM. The result for `COC(=O)c1ccncc1Nc1cn(C2CCN(C(C)C)CC2)nc1C` [Compound 101, methyl 3-((1-(1-isopropylpiperidin-4-yl)-3-methyl-1H-pyrazol-4-yl)amino)isonicotinate] reads 10000 to 100000 nM; that for `Cc1nn(C2CCN(C(C)C)CC2)cc1Nc1cnccc1C(=O)O` [Compound 102, 3-((1-(1-isopropylpiperidin-4-yl)-3-methyl-1H-pyrazol-4-yl)amino)isonicotinic acid], 100 to 1000 nM; that for `COC(=O)c1ccncc1Nc1cnn(C2CCN(C(C)C)CC2)c1C` [Compound 103, methyl 3-((1-(1-isopropylpiperidin-4-yl)-5-methyl-1H-pyrazol-4-yl)amino)isonicotinate], 10000 to 100000 nM. On to `Cc1c(Nc2cnccc2C(=O)O)cnn1C1CCN(C(C)C)CC1` [Compound 104], for which the IC50 lay within 1000 to 10000 nM. The result for `Cc1nn(CCN(C)C)cc1Nc1cnccc1C(=O)O` [Compound 107, 3-(1-(2-(dimethylamino)ethyl)-3-methyl-1H-pyrazol-4-ylamino) isonicotinic acid] reads 100 to 1000 nM; that for `Cc1nn(C2CCCN(C)CC2)cc1Nc1cnccc1C(=O)O` (centres unmarked) [Compound 111, 3-(3-methyl-1-(1-methylazepan-4-yl)-1H-pyrazol-4-ylamino) isonicotinic acid], 10000 to 100000 nM; that for `Cc1c(Nc2cnccc2C(=O)O)cnn1C1CCCN(C)CC1` (centres unmarked) [Compound 112, 3-((5-methyl-1-(1-methylazepan-4-yl)-1H-pyrazol-4-yl)amino)isonicotinic acid], 100 to 1000 nM.
